According to US10344054B2, “Angiotensin-1-receptor antagonists” (Ferring B.V., priority 2016, dated 2019):
Starred links: 1 amine or outer side, 2 acyl side, 3 side chain; linkers in the order of their positions; H or OH if unused. Non-standard residues stand in square brackets, D forms with d. Residues, ends and D or L forms follow the SMILES beside them. X1 = O=C(CN(C[C@H](O)[C@@H](O)[C@H](O)[C@H](O)CO)[*:1])[*:2]; dPhe(2-Ph) = N[C@H](Cc1ccccc1-c1ccccc1)C(=O)O; dPhe(2-Cl) = N[C@H](Cc1ccccc1Cl)C(=O)O; dPhe(2-Me) = Cc1ccccc1C[C@@H](N)C(=O)O; d1Nal = N[C@H](Cc1cccc2ccccc12)C(=O)O; dBta = N[C@H](Cc1csc2ccccc12)C(=O)O; Gly(cPent) = N[C@H](C(=O)O)C1CCCC1; Chg = N[C@H](C(=O)O)C1CCCCC1

What was measured:
[1] = biological target: T1, hAT1R (Homo sapiens, UniProt P30556); experiment: FLIPR calcium flux assay, Part II: antagonist activity against Angiotensin II; type: cell-based; conditions: for Emax: read-out: hAT1R Antagonist Efficacy Antag (%) Ave; for IC50: read-out: hAT1R Antagonist IC50 Ave; on hAT1R Antagonist Efficacy Antag (%) Ave: Angiotensin II 10 nM final concentration
T1 sequence (P30556 1-359): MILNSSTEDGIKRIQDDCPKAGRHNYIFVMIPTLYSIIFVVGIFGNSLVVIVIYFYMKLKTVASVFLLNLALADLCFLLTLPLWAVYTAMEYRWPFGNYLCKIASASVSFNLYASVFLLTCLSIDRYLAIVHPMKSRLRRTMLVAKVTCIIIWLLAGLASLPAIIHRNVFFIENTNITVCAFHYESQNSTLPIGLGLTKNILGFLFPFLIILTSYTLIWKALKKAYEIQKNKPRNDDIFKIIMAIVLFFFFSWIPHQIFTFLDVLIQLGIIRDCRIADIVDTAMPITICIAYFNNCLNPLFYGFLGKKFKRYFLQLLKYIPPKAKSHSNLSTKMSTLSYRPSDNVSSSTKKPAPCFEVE

[2] = biological target: T1, hAT1R; experiment: FLIPR calcium flux assay, Part I: agonist activity; type: cell-based; conditions: ChanTest hAT1R stable cells; % MPE, percent of the maximal possible effect; read-out: hAT1R Agonist Efficacy Agonist (%) Ave

CC(C)[C@H](NC(=O)[C@H](CCCNC(=N)N)NC(=O)CNC[C@H](O)[C@@H](O)[C@H](O)[C@H](O)CO)C(=O)N[C@@H](Cc1ccc(O)cc1)C(=O)N[C@H](C(=O)N[C@@H](Cc1c[nH]cn1)C(=O)N1CCC[C@H]1C(=O)N[C@H](Cc1csc2ccccc12)C(=O)O)C(C)C [Compound 38, Glac-Arg-Val-Tyr-Val-His-Pro-(D-(3-benzothienyl)alanine)-OH] (HELM PEPTIDE1{[O=C(CNC[C@H](O)[C@@H](O)[C@H](O)[C@H](O)CO)[*:2]].R.V.Y.V.H.P.[O=C(O)[C@@H](Cc1csc2ccccc12)N[*:1]]}$$$$V2.0)
Emax [1]: 101% | IC50 [1]: 18.8 nM | Emax [2]: 5%

CC(C)[C@H](NC(=O)[C@H](CCCNC(=N)N)NC(=O)CNC[C@H](O)[C@@H](O)[C@H](O)[C@H](O)CO)C(=O)N[C@@H](Cc1ccc(O)cc1)C(=O)N[C@H](C(=O)N[C@@H](Cc1c[nH]cn1)C(=O)N1CCC[C@H]1C(=O)N[C@H](Cc1ccccc1-c1ccccc1)C(=O)O)C(C)C [Compound 39, Glac-Arg-Val-Tyr-Val-His-Pro-(D-Phe(2-Ph))—OH] (HELM PEPTIDE1{[O=C(CNC[C@H](O)[C@@H](O)[C@H](O)[C@H](O)CO)[*:2]].R.V.Y.V.H.P.[O=C(O)[C@@H](Cc1ccccc1-c1ccccc1)N[*:1]]}$$$$V2.0)
Emax [1]: 101% | IC50 [1]: 26.7 nM | Emax [2]: 8%

CC(C)[C@H](NC(=O)[C@H](CCCNC(=N)N)NC(=O)CNC[C@H](O)[C@@H](O)[C@H](O)[C@H](O)CO)C(=O)N[C@@H](Cc1ccc(O)cc1)C(=O)N[C@H](C(=O)N[C@@H](Cc1c[nH]cn1)C(=O)N1CCC[C@H]1C(=O)N[C@H](Cc1cccc2ccccc12)C(=O)O)C1CCCCC1 [Compound 40, Glac-Arg-Val-Tyr-Chg-His-Pro-(D-1Nal)-OH] (H-[X1]RVY[Chg]HP[d1Nal]-OH)
Emax [1]: 101% | IC50 [1]: 21.9 nM | Emax [2]: 5%

CC(C)[C@H](NC(=O)[C@H](CCCNC(=N)N)NC(=O)CNC[C@H](O)[C@@H](O)[C@H](O)[C@H](O)CO)C(=O)N[C@@H](Cc1ccc(O)cc1)C(=O)N[C@H](C(=O)N[C@@H](Cc1c[nH]cn1)C(=O)N1CCC[C@H]1C(=O)N[C@H](Cc1csc2ccccc12)C(=O)O)C1CCCCC1 [Compound 41, Glac-Arg-Val-Tyr-Chg-His-Pro-(D-(3-benzothienyl)alanine)-OH] (H-[X1]RVY[Chg]HP[dBta]-OH)
Emax [1]: 101% | IC50 [1]: 19.1 nM | Emax [2]: 5%

CC(C)[C@H](NC(=O)[C@H](CCCNC(=N)N)NC(=O)CNC[C@H](O)[C@@H](O)[C@H](O)[C@H](O)CO)C(=O)N[C@@H](Cc1ccc(O)cc1)C(=O)N[C@H](C(=O)N[C@@H](Cc1c[nH]cn1)C(=O)N1CCC[C@H]1C(=O)N[C@H](Cc1ccccc1-c1ccccc1)C(=O)O)C1CCCCC1 [Compound 42, Glac-Arg-Val-Tyr-Chg-His-Pro-(D-Phe(2-Ph))—OH] (H-[X1]RVY[Chg]HP[dPhe(2-Ph)]-OH)
Emax [1]: 101% | IC50 [1]: 28.5 nM | Emax [2]: 10%

CC(C)[C@H](NC(=O)[C@H](CCCNC(=N)N)NC(=O)CNC[C@H](O)[C@@H](O)[C@H](O)[C@H](O)CO)C(=O)N[C@@H](Cc1ccc(O)cc1)C(=O)N[C@H](C(=O)N[C@@H](Cc1c[nH]cn1)C(=O)N1CCC[C@H]1C(=O)N[C@H](Cc1ccccc1Cl)C(=O)O)C1CCCC1 [Compound 43, Glac-Arg-Val-Tyr-Cpg-His-Pro-(D-Phe(2-Cl))—OH] (H-[X1]RVY[Gly(cPent)]HP[dPhe(2-Cl)]-OH)
Emax [1]: 100% | IC50 [1]: 16.6 nM | Emax [2]: 6%

Cc1ccccc1C[C@@H](NC(=O)[C@@H]1CCCN1C(=O)[C@H](Cc1c[nH]cn1)NC(=O)[C@@H](NC(=O)[C@H](Cc1ccc(O)cc1)NC(=O)[C@@H](NC(=O)[C@H](CCCNC(=N)N)NC(=O)CNC[C@H](O)[C@@H](O)[C@H](O)[C@H](O)CO)C(C)C)C1CCCC1)C(=O)O [Compound 44, Glac-Arg-Val-Tyr-Cpg-His-Pro-(D-Phe(2-Me))—OH] (H-[X1]RVY[Gly(cPent)]HP[dPhe(2-Me)]-OH)
Emax [1]: 101% | IC50 [1]: 20.4 nM | Emax [2]: 7%

Cc1ccccc1C[C@@H](NC(=O)[C@@H]1CCCN1C(=O)[C@H](Cc1c[nH]cn1)NC(=O)[C@@H](NC(=O)[C@H](Cc1ccc(O)cc1)NC(=O)[C@@H](NC(=O)[C@H](CCCNC(=N)N)NC(=O)CNC[C@H](O)[C@@H](O)[C@H](O)[C@H](O)CO)C(C)C)C(C)C)C(=O)O [Compound 45, Glac-Arg-Val-Tyr-Val-His-Pro-(D-Phe(2-Me))—OH] (HELM PEPTIDE1{[O=C(CNC[C@H](O)[C@@H](O)[C@H](O)[C@H](O)CO)[*:2]].R.V.Y.V.H.P.[Cc1ccccc1C[C@@H](N[*:1])C(=O)O]}$$$$V2.0)
Emax [1]: 101% | IC50 [1]: 18.6 nM | Emax [2]: 6%

Cc1ccccc1C[C@@H](NC(=O)[C@@H]1CCCN1C(=O)[C@H](Cc1c[nH]cn1)NC(=O)[C@@H](NC(=O)[C@H](Cc1ccc(O)cc1)NC(=O)[C@@H](NC(=O)[C@H](CCCNC(=N)N)NC(=O)CNC[C@H](O)[C@@H](O)[C@H](O)[C@H](O)CO)C(C)C)C1CCCCC1)C(=O)O [Compound 46, Glac-Arg-Val-Tyr-Chg-His-Pro-(D-Phe(2-Me))—OH] (H-[X1]RVY[Chg]HP[dPhe(2-Me)]-OH)
Emax [1]: 100% | IC50 [1]: 22.2 nM | Emax [2]: 6%

CC[C@H](C)[C@H](NC(=O)[C@@H]1CCCN1C(=O)[C@H](Cc1c[nH]cn1)NC(=O)[C@@H](NC(=O)[C@H](Cc1ccc(O)cc1)NC(=O)[C@@H](NC(=O)[C@H](CCCNC(=N)N)NC(=O)CNC)C(C)C)[C@@H](C)CC)C(=O)O [Ref. Cpd. 1, Sar-Arg-Val-Tyr-Ile-His-Pro-Ile-OH, reference compound]
Emax [1]: 99% | Emax [2]: 42%

CC[C@H](C)[C@H](NC(=O)[C@H](Cc1ccc(O)cc1)NC(=O)[C@@H](NC(=O)[C@H](CCCNC(=N)N)NC(=O)CNC)C(C)C)C(=O)N[C@@H](Cc1c[nH]cn1)C(=O)N1CCC[C@H]1C(=O)N[C@H](Cc1ccccc1)C(=O)O [Ref. Cpd. 2, Sar-Arg-Val-Tyr-Ile-His-Pro-D-Phe-OH, reference compound]
Emax [1]: 99% | IC50 [1]: 14.3 nM | Emax [2]: 25%

CCCCC(=O)N(Cc1ccc(-c2ccccc2-c2nnn[nH]2)cc1)[C@H](C(=O)O)C(C)C [Ref. Cpd. 4, Valsartan, reference compound]
Emax [1]: 100% | Emax [2]: 0.7%
